{"source": "patent US20250000834A1", "about": "“COMPOSITIONS AND METHODS FOR TARGETING GPCR FOR THE PREVENTION AND TREATMENT OF PAIN” (Duke University, priority 2021, published 2025)", "key": {"[1]": {"target": "T1, GPR37L1 (Mus musculus, UniProt Q99JG2)", "T1 construct": "from tissue; host or cells: mouse dorsal root ganglia (DRG)", "T1 sequence (Q99JG2 25-481)": "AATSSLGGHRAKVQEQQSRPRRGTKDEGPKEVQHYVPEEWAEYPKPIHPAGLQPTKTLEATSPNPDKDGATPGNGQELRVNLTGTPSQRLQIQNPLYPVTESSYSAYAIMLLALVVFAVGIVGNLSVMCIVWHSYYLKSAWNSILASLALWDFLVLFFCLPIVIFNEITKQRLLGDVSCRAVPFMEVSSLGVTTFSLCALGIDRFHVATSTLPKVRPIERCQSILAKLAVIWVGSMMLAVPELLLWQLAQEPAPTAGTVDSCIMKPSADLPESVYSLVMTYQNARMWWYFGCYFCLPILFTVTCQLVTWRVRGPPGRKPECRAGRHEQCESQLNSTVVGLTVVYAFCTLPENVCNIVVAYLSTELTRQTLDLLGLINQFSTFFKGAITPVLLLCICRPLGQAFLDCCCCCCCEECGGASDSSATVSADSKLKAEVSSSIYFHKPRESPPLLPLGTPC", "experiment": "Lipid overlay assay on MaR1-coated PVDF membrane with mouse DRG lysates", "format": "binding", "settings": "WT DRG lysate; MaR1 coated at 10 nM", "procedure": "(§1) Lipids overlay assay: Lipids membrane coating and protein overlay assay were performed as previously described (S. Dowler, et al., Protein lipid overlay assay. Sci STKE 2002, p 16 (2002)). […] Compound-coated membranes were dried and blocked with 1% BSA. The coated membranes were incubated with lysates obtained from hGPR37L1-transfected HEK293 cells or mouse DRG lysate from WT or Gpr37l1 KO mice for 2 hours, followed by detection using an anti-GRP37L1 antibody (Bioss (Woburn, MA), Rabbit, 1:1000, #bs-15390R) or anti-flag antibody (Cell Signaling Technology (Danvers, MA), Rabbit, 1:1000, #14793). Blots were further incubated with an HRP-conjugated secondary anti-rabbit antibody (Jackson ImmunoResearch Laboratories (West Grove, PA), raised in donkey, 1:5000), developed in ECL solution (Pierce Biotechnology, Waltham, MA), and the signal was visualized from ChemiDoc XRS (Bio-Rad, Hercules, CA). The signal Intensity was quantified by Image J software (NIH).\n(§2) To confirm whether DRG-expressed GPR37L1 would also interact with MaR1, a lipid overlay assay was performed on MaR1-coated PVDF membrane using DRG lysates from WT or Gpr37l1 KO mice. To determine dose-dependent binding, MaR1 was coated at the concentrations of 0.01 nM, 0.1 nM, 1 nM, and 10 nM."}, "[2]": {"tested_on": "GPR37L1", "experiment": "Lipid overlay assay on MaR1-coated PVDF membrane with mouse DRG lysates", "format": "binding", "settings": "Gpr37l1 KO DRG lysate", "procedure": "as §1, §2"}, "[3]": {"tested_on": "PTX-induced mechanical allodynia in mice", "experiment": "Paclitaxel (PTX)-induced mechanical allodynia, von Frey paw withdrawal threshold", "format": "in vivo, mouse", "settings": "intrathecal 100 ng", "procedure": "(§3) Pain models and drug injection: Animal model of chemotherapy-induced peripheral neuropathy (CIPN) was induced by paclitaxel (Sigma-Aldrich (St. Louis, MO), T7191, diluted with sterile saline). A single injection of paclitaxel ([…]) was given by intraperitoneal injection. A single injection of paclitaxel may induce mechanical allodynia for 4-6 weeks (X. Luo et al., Macrophage Toll-like Receptor 9 Contributes to Chemotherapy-Induced Neuropathic Pain in Male Mice. J Neurosci 39, 6848-6864 (2019)). Animal model of […] neuropathy was induced by streptozotocin (STZ, Sigma-Aldrich (St. Louis, MO), S0130, diluted with sterile saline). A single injection of STZ (75 mg/kg) was given as previously described (N. C. Brigham et al., Controlled release of etoricoxib from poly(ester urea) films for post-operative pain management. J Control Release 329, 316-327 (2021)). For intrathecal (i.t.) injection of MaR1, a spinal cord puncture was made by a Hamilton micro-syringe (Hamilton, Reno, NV) with a 30-gauge needle between the L5 and L6 levels to deliver reagents (5 μl) to the cerebral spinal fluid (J. L. Hylden, G. L. Wilcox, Intrathecal morphine in mice: a new technique. Eur. J Pharmacol. 67, 313-316 (1980)).\n(§4) Nociceptive behavior tests: Gpr37l1^+/+, Gpr37l1^+/−, or Gpr37l1^−/− mice were habituated to the testing environment for at least two days before the baseline testing. All the animal behaviors were tested blindly. Thermal and mechanical sensitivity was tested before and after the injection of paclitaxel (PTX, 6 mg/kg, IP) and streptozotocin (STZ, 75 mg/kg, IP). MaR1 was intrathecally injected 3 days after the STZ and PTX injection. […] The 50% paw withdrawal threshold was measured by Dixon's up-down method (W. J. Dixon, Efficient analysis of experimental observations. Annu Rev Pharmacol Toxicol 20, 441-462 (1980)). Thermal sensitivity was measured using a Hargreaves radiant heat apparatus (IITC Life Science, Woodland Hills, CA) (K. Hargreaves, et al., A new and sensitive method for measuring thermal nociception in cutaneous hyperalgesia. Pain 32, 77-88 (1988)). […]"}, "[4]": {"tested_on": "STZ-induced mechanical allodynia in mice", "experiment": "Streptozotocin (STZ)-induced mechanical allodynia, von Frey paw withdrawal threshold", "format": "in vivo, mouse", "settings": "intrathecal 100 ng", "procedure": "as §3, §4"}}}
{"smiles": "CC/C=C\\C/C=C\\C[C@H](O)\\C=C/C=C/C=C/[C@H](O)C/C=C\\CCC(=O)O", "note": "[MaR1, Maresin 1]", "values": [{"measurement": "binding spot in lipid overlay assay", "setting": "[1]", "result": "specific binding spot was observed"}, {"measurement": "binding spot in lipid overlay assay", "setting": "[2]", "result": "completely absent"}, {"measurement": "effect on PTX-induced mechanical allodynia", "setting": "[3]; Gpr37l1+/+ WT mice, 3 days after PTX", "result": "reversed PTX-induced mechanical allodynia in all the mice"}, {"measurement": "effect on PTX-induced mechanical allodynia", "setting": "[3]; Gpr37l1+/− mice", "result": "significantly reversed the mechanical allodynia in a majority"}, {"measurement": "effect on PTX-induced mechanical allodynia", "setting": "[3]; Gpr37l1−/− mice", "result": "no significant effects"}, {"measurement": "effect on STZ-induced mechanical allodynia", "setting": "[4]; Gpr37l1+/+ WT mice, 3 days after STZ", "result": "reversed STZ-induced mechanical allodynia in all the mice"}, {"measurement": "effect on STZ-induced mechanical allodynia", "setting": "[4]; Gpr37l1+/− mice", "result": "significantly reversed the mechanical allodynia in the majority"}, {"measurement": "effect on STZ-induced mechanical allodynia", "setting": "[4]; Gpr37l1−/− mice", "result": "no significant effects"}]}
